# From patent publication US10604526B2, “Chemokine receptor modulators and uses thereof” (RAPT THERAPEUTICS, INC., priority 2016, dated 2020)
# Target: T1, hCCR4 (Homo sapiens, UniProt P51679)
# T1 sequence (P51679 1-360): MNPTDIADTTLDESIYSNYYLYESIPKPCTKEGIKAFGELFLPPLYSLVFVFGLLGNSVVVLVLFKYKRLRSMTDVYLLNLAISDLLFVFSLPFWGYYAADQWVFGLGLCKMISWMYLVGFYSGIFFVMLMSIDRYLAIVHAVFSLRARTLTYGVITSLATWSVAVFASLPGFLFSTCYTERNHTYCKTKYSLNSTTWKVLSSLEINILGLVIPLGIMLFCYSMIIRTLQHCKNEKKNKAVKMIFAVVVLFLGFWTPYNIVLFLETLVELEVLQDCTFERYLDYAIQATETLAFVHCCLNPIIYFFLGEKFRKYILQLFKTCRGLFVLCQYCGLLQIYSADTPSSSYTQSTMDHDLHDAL
# Experiment: Calcium flux assay
# Assay type: cell-based
# Conditions: Chem5-hCCR4 cells, CCL22 at EC80 of 1.5 nM, FLIPR Calcium 6 dye; read-out: Potency (IC50)
# Method: Calcium Flux Assay. Compounds were evaluated in a calcium flux assay substantially performed as follows. Chem5-hCCR4 cells (EMD Millipore, Hayward, Calif.; HTS009C) were cultured under standard conditions and frozen in aliquots of 10×10^6 cells/mL. The day prior to compound testing, a vial was rapidly thawed and pipetted into 20 mL media (DMEM+10% FBS+1% Pen-Strep+1% L-glutamine). Cells were harvested by centrifugation and re-suspended in fresh culture medium. 25 μL of cell suspension was seeded into 384-well plates (Corning, Tewksbury, Mass.; CellBind with black wall/clear bottom). The plates were centrifuged at 300 g for 10 seconds and incubated overnight at 37° C. and 5% CO2. The day of compound testing, media was removed from the plates and 25 μL serum free media was added to each well. Plates were returned to the incubator for 2 h. 25 μL assay buffer (Hank's balanced salt solution+20 mM HEPES pH 7.4) containing FLIPR Calcium 6 dye (Molecular Devices, Sunnyvale, Calif.; # R8191) and probenecid (2.5 mM) was added to each well and incubated at 37° C. and 5% CO2 for 2 h. Compounds in DMSO were added to the plates using an HP D300e digital dispenser, and all wells were normalized to contain 0.25 μL (0.5%) DMSO. Plates were incubated for 1 hour at 37° C. and 5% CO2. CCL22 (Peprotech; Rockyhill, N.J.) was diluted in assay buffer containing 0.1% BSA to 7.5 nM (corresponding to 5×EC80 of 1.5 nM).
# Assay plates and working solution of CCL22 were transferred to the FlexStation plate reader (Molecular Devices) at 37° C. for 5 min of equilibration. Fluorescence recordings at 485 excitation/525 emission were performed at 2.5 second intervals. At t=16 seconds, 12.5 μL of CCL22 solution was added to each well and reads continued for 30 seconds at 2.5 second intervals. The minimum fluorescence (Fmin) was calculated by averaging the reads prior to ligand addition and the change in fluorescence (ΔF) was calculated by subtracting the Fmin from the average of the reads following ligand addition. The response ΔF/Fmin was plotted as a function of the compound concentration and the IC50 values were determined by non-linear regression analysis using a 4-parameter fit in either PRISM software (GraphPad; La Jolla, Calif.) or Dotmatics Browser.
compound,measurement,value
"C[C@H](c1ccc(Cl)cc1Cl)n1nc(C#N)c2ncc(N3CC([C@H]4CCCN(CCCC(N)=O)C4)C3)nc21 (single isomer, unassigned) [Example 78]",IC50,< 100 nM
CC(O)CN1CCCC(C2CN(c3cnc4c(C#N)nn([C@H](C)c5ccc(Cl)cc5Cl)c4n3)C2)C1 (mixture of isomers) [Example 27],IC50,< 100 nM
"Cc1nn([C@H](C)c2ccc(Cl)cc2Cl)c2nc(N3CC([C@@H]4CCCN(CCS(N)(=O)=O)C4)C3)cnc12 (single isomer, unassigned) [Example 5]",IC50,> 500 nM
"CCCN1CCC[C@@H](C2CN(c3cnc4c(C#N)nn([C@H](C)c5ccc(Cl)cc5Cl)c4n3)C2)C1 (single isomer, unassigned) [Example 72]",IC50,100 to 500 nM
"N-(2-((R)-3-(1-(1-((R)-1-(2,4-dichlorophenyl)ethyl)-3-(trifluoromethyl)-1H-pyrazolo[3,4-b]pyrazin-6-yl)azetidin-3-yl)piperidin-1-yl)ethyl)propane-2-sulfonamide and N-(2-((S)-3-(1-(1-((R)-1-(2,4-dichlorophenyl)ethyl)-3-(trifluoromethyl)-1H-pyrazolo[3,4-b]pyrazin-6-yl)azetidin-3-yl)piperidin-1-yl)ethyl)propane-2-sulfonamide [Example 66]",IC50,< 100 nM
"C[C@H](c1ccc(Cl)cc1Cl)n1nc(C#N)c2ncc(N3CC(C4CCCN(CCS(=O)(=O)N5CCOCC5)C4)C3)nc21 (mixture of isomers) [Example 58, 1-((R)-1-(2,4-dichlorophenyl)ethyl)-6-(3-((S)-1-(2-(morpholinosulfonyl)ethyl)piperidin-3-yl)azetidin-1-yl)-1H-pyrazolo[3,4-b]pyrazine-3-carbonitrile and 1-((R)-1-(2,4-dichlorophenyl)ethyl)-6-(3-((R)-1-(2-(morpholinosulfonyl)ethyl)piperidin-3-yl)azetidin-1-yl)-1H-pyrazolo[3,4-b]pyrazine-3-carbonitrile]",IC50,100 to 500 nM
"CNC(=O)CCCN1CCC[C@H](C2CN(c3cnc4c(C#N)nn([C@H](C)c5ccc(Cl)cc5Cl)c4n3)C2)C1 (single isomer, unassigned) [Example 69]",IC50,< 100 nM
"C[C@H](c1ccc(Cl)cc1Cl)n1nc(C#N)c2ncc(N3CC([C@H]4CCCN(CCCC(=O)N(C)C)C4)C3)nc21 (single isomer, unassigned) [Example 75]",IC50,< 100 nM
"C[C@H](c1ccc(Cl)cc1Cl)n1nc(C#N)c2ncc(N3CC([C@H]4CCN(CCCO)C4)C3)nc21 (single isomer, unassigned) [Example 95]",IC50,< 100 nM
"C[C@H](c1ccc(Cl)cc1Cl)n1nc(C#N)c2ncc(N3CC([C@H]4CCCN(Cc5cnc[nH]5)C4)C3)nc21 (single isomer, unassigned) [Example 112]",IC50,< 100 nM
"Cc1nn([C@H](C)c2ccc(Cl)cc2Cl)c2nc(N3CC([C@H]4CCCN(CCC(=O)O)C4)C3)cnc12 (single isomer, unassigned) [Example 8]",IC50,< 100 nM
"C[C@H](c1ccc(Cl)cc1Cl)n1nc(C(F)(F)F)c2ncc(N3CC(C4CCCN(CCCS(C)(=O)=O)C4)C3)nc21 (mixture of isomers) [Example 50, 1-((R)-1-(2,4-Dichlorophenyl)ethyl)-6-(3-((R)-1-(3-(methylsulfonyl)propyl)piperidin-3-yl)azetidin-1-yl)-3-(trifluoromethyl)-1H-pyrazolo[3,4-b]pyrazine and 1-((R)-1-(2,4-dichlorophenyl)ethyl)-6-(3-((S)-1-(3-(methylsulfonyl)propyl)piperidin-3-yl)azetidin-1-yl)-3-(trifluoromethyl)-1H-pyrazolo[3,4-b]pyrazine]",IC50,< 100 nM
"C[C@H](c1ccc(Cl)cc1Cl)n1nc(C#N)c2ncc(N3CC([C@@H]4CCN(CCCO)C4)C3)nc21 (single isomer, unassigned) [Example 94]",IC50,100 to 500 nM
"Cc1nn([C@H](C)c2ccc(Cl)cc2Cl)c2nc(N3CC([C@@H]4CCCN(CCO)C4)C3)ncc12 (single isomer, unassigned) [Example 39]",IC50,> 500 nM
